Reference: PMC11602115 (Journal of Medicinal Chemistry, 2017)

Assays:
[1] = Incubation in simulated gastric fluid; assay type: physicochemical; details: room temperature, 3 h
Source text: (§1) A taurine-conjugated metabolite was subsequently identified in bile (M1, Figure 4), which was also observed in circulating plasma, although at much lower concentrations (∼5%) compared to parent. Further, two oxidized products, one of which was also a taurine-conjugate, were identified (M2 and M3) in plasma. […] It is known that taurine can be conjugated to bile acids and these conjugates may be hydrolyzed in the gut which allows for bile acid reabsorbtion.[19]

[2] = Metabolite profile of 5c in the rat; assay type: in vivo; details: rat, after dosing of 5c
Source text: as §1

IP [3] = target: T1, IP (Homo sapiens, UniProt P43119); assay: HTRF cAMP assay, recombinant human IP receptor stably expressed in CHO-K1 cells; assay type: cell-based; set-up: expressed in transfected cells
T1 sequence (P43119 whole entry): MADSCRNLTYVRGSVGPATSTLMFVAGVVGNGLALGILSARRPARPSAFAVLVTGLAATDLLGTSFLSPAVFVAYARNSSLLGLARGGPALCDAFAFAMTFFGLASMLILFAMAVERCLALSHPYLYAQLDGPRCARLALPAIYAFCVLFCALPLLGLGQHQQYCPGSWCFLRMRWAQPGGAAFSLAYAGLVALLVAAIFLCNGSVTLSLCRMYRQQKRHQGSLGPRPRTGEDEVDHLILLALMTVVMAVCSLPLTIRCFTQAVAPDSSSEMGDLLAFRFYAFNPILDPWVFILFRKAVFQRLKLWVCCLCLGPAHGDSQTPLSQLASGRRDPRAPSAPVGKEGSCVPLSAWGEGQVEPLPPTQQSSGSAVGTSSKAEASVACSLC

IP [4] = target: T1, IP; assay: Radioligand binding, human IP ([3H]-iloprost); set-up: expressed in transfected cells; host or cells: CHO-K1 (crude membranes); details: Figure 4; read-out: Ki hIP
Experimental: CHO-K1 cells expressing recombinant IP receptors were harvested, washed with ice-cold phosphate buffered saline, pH 7.4 (PBS), and then centrifuged at 48 000g for 20 min at 4 °C. The resulting cell pellet was then resuspended in ice-cold PBS containing 20 mM HEPES, pH 7.4, and 0.1 mM EDTA, homogenized on ice using a Brinkman Polytron, and centrifuged (48 000g for 20 min at 4 °C). This resuspension and centrifugation process was repeated one further time. Crude membrane pellets were stored at −80 °C until used for radioligand binding assays.
Assay incubations were terminated by rapid filtration through PerkinElmer GF/C filtration plates pretreated with 0.3% PEI, under vacuum pressure using a 96-well Packard filtration apparatus, followed by multiple washes with ice-cold wash buffer (PBS containing 20 mM HEPES and 0.1 mM EDTA, pH 7.4). Plates were then dried at 45 °C for a minimum of 2 h. Finally, 25 μL of BetaScint scintillation cocktail was added to each well and plates were counted in a Packard TopCount scintillation counter. In each competition study, test compounds were dosed at 10 concentrations with triplicate determinations at each test concentration.

human DP1 receptor = target: T2, human DP1 receptor (Homo sapiens, UniProt Q13258); details: earlier series; cited from earlier work
T2 construct: expressed in transfected cells
T2 sequence (Q13258 1-359): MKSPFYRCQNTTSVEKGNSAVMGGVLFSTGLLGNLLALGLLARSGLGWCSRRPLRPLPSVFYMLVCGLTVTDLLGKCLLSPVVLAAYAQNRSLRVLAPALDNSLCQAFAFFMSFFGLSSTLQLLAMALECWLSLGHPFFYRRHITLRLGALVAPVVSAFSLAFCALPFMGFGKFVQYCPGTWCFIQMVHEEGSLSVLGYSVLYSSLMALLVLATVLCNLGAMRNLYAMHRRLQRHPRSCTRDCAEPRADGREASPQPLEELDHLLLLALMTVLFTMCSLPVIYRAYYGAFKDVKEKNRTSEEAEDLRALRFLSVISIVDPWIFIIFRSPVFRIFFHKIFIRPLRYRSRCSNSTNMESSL

chemical degradation to the parent in simulated gastric fluid [1]	concentration in circulating plasma compared to parent [2]	Emax (IP [3]; CHO-K1, read-out: hIP % IA)	EC50 (IP [3]; HTRF (cAMP) human IP receptor assay, mean of at least three determinations)	Ki (IP [4])	Structure (SMILES)	IP to DP1 selectivity ratio (human DP1 receptor)
little chemical degradation	~5%	76%	930 nM	400 nM	O=C(COC[C@H]1CC[C@H](COC(=O)N(c2ccccc2)c2ccc(Cl)cc2)CC1)NCCS(=O)(=O)O [M1, 2-(2-(((1r,4r)-4-(((4-Chlorophenyl)(phenyl)carbamoyloxy)methyl)cyclohexyl)methoxy)acetamido)ethanesulfonic Acid]	
					O=C(O)COc1cccc2c1CC[C@H](Cn1ncc(-c3cccc(F)c3F)c(-c3ccc(F)cc3)c1=O)C2 [compound 3]	8 fold
